Measurements from patent US7812183B2, “Benzopyran derivatives as potassium channel openers” (Janssen Pharmaceutica NV, priority 2005, dated 2010).

Target: T1, KATP channels (Homo sapiens, UniProt O60706+Q14654)
T1 construct: TE671 human medulloblastoma cells were obtained from ATCC; host or cells: TE671 human medulloblastoma cells
Test: Potassium Channel Assay (FLIPR membrane potential, TE671 cells)
Type: cell-based
Settings: TE671 human medulloblastoma cells, Membrane Potential Assay Dye, room temperature, hyperpolarization from KATP channel opening
Protocol: TE671 human medulloblastoma cells were obtained from ATCC and grown in Dulbecco's modified Eagle's medium (DMEM) supplemented with 10% fetal bovine serum, 100 U/ml penicillin and 100 U/ml streptomycine.
The day before testing, the cells were plated in black 96-well plates at 50K/well. On the day of testing, the growth media was removed, then 100 μl of FLIPR buffer (20 mM HEPES, 120 mM NaCl, 2 mM KCl, 2 mM CaCl2, 1 mM MgCl2, 5 mM Glucose) and 100 μl of Membrane Potential Assay Dye (Molecular Devices) dissolved in FLIPR buffer were added to each well. The cells were incubated at room temperature for 15 to 30 min.
The effect of test compounds on KATP channels were evaluated on a fluorometric imaging plate reader (FLIPR, Molecular Devices) at room temperature. After a baseline period, 50 μl of 5× stock solution of test compound prepared in FLIPR buffer was added and fluorescent change was monitored for 3 minutes. After this reading, glyburide, a KATP channel blocker, was added to a final concentration of 5 μM to check the specificity of the test compound as a KATP channel openers. Hyperpolarization resulting from KATP channel opening was observed as a decrease in fluorescent intensity.
Representative compounds of the present invention were tested according to the procedure described above, with results as listed in Table 7, below.

T1 sequence (O60706 1-1549 isoform O60706-2): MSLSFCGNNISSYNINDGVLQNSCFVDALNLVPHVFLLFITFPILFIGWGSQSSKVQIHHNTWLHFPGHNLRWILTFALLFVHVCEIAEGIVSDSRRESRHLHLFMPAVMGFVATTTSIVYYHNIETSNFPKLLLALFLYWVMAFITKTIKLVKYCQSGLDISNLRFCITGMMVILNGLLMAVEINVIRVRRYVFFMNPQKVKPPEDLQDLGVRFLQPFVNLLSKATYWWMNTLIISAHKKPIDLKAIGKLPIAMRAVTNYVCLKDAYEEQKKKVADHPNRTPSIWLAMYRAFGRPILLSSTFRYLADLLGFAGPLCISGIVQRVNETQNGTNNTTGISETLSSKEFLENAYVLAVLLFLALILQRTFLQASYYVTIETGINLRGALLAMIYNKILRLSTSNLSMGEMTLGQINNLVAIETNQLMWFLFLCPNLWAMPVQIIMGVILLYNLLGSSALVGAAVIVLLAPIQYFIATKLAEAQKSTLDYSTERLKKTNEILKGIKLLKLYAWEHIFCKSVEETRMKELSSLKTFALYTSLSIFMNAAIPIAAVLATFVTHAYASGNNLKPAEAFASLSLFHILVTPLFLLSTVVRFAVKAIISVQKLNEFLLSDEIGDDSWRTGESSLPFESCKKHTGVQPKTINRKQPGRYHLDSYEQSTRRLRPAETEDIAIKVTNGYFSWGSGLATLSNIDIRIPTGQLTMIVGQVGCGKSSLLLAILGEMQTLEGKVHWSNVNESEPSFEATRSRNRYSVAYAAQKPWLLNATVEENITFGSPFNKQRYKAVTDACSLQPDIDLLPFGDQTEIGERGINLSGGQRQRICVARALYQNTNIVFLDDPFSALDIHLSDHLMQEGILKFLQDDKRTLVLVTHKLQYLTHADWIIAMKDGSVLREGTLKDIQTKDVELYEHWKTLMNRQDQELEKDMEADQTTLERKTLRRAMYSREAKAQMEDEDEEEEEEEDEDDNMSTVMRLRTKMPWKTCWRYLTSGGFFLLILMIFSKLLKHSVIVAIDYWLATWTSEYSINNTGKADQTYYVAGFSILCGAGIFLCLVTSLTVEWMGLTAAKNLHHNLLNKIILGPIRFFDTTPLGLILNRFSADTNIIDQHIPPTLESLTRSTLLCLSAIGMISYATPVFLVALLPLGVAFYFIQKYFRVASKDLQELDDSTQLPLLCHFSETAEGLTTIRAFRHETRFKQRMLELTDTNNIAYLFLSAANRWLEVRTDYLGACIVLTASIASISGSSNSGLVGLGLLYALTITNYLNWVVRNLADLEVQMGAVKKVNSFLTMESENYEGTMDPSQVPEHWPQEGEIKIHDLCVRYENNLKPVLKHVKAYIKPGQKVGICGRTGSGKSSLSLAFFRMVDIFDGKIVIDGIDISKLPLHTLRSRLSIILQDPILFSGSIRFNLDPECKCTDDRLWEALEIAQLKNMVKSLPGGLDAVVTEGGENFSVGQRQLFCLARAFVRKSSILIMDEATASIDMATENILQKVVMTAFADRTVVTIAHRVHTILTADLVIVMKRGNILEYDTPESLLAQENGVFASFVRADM
T1 sequence (Q14654 whole entry): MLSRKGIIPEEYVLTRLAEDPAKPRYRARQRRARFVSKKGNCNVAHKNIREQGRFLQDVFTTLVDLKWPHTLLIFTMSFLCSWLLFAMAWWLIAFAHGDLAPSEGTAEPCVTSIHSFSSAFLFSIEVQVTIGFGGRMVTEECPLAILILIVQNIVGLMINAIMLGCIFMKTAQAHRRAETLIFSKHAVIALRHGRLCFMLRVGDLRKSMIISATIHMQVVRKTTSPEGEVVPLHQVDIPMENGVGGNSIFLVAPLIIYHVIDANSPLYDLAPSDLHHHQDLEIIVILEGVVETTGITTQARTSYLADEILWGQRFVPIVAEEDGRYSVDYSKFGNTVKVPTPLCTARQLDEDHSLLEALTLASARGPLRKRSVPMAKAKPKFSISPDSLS

Row | SMILES | EC50
1 | CC1(C)Oc2ccc(S(=O)(=O)c3ccccc3)cc2[C@@H](Nc2noc3ccc(Cl)cc23)[C@@H]1O [Compound 74, 6-Benzenesulfonyl-4R-(5-chloro-benzo[d]isoxazol-3-ylamino)-2,2-dimethyl-chroman-3S-ol] | 1.37 µM
2 | CC1(C)Oc2ccncc2[C@@H](Nc2nc3cc(Cl)ccc3o2)[C@@H]1O (racemic) [Compound 107, 4-(5-Chloro-benzoxazol-2-ylamino)-2,2-dimethyl-3,4-dihydro-2H-pyrano[3,2-c]pyridin-3-ol] | > 30 µM
3 | CC1(C)Oc2ccc(S(=O)(=O)c3cccc(F)c3)cc2[C@@H](n2oc3cc(Cl)ccc3c2=O)[C@@H]1O [Compound 100, 4R-6-Chloro-2-[6-(3-fluoro-benzenesulfonyl)-3S-hydroxy-2,2-dimethyl-chroman-4-yl]-R-benzo[d]isoxazol-3-one] | 1.95 µM
4 | CC1(C)Oc2ccc(S(=O)(=O)N3CCCCC3)cc2[C@@H](n2oc3cc(Cl)ccc3c2=O)[C@@H]1O [Compound 84, 6-Chloro-2-[3S-hydroxy-2,2-dimethyl-6-(piperidine-1-sulfonyl)-chroman-4-yl]-R-benzo[d]isoxazol-3-one] | 1.08 µM
5 | CC1(C)Oc2ccc(C#N)cc2[C@@H](NP(C)(=O)c2ccccc2)[C@@H]1O (stereo partly shown) [Compound 28] | 18.6 µM
6 | CC1(C)C=C(Oc2nsc3cc([N+](=O)[O-])ccc23)c2cc(C#N)ccc2O1 [Compound 69, (3S,4R)-2,2-Dimethyl-R-(6-nitro-benzo[d]isothiazol-3-yloxy)-2H-chromene-6-carbonitrile] | > 30 µM
7 | CC1(C)Oc2ccc(C#N)cc2[C@@H](Nc2noc3ccc(Cl)cc23)[C@@H]1O [Compound 39, (3S,4R)-4-(5-Chloro-benzo[d]isoxazol-3-ylamino)-3-hydroxy-2,2-dimethyl-chroman-6-carbonitrile] | 0.61 µM
8 | CC1(C)Oc2ccc(Cl)cc2C(OC(=O)c2cccc(Cl)c2)C1O (racemic) [Compound 3] | 26.3 µM
9 | CC1(C)Oc2cc(Cl)c(Cl)cc2[C@@H](n2oc3cc(Cl)ccc3c2=O)[C@@H]1O [Compound 94, 6-Chloro-2-(6,7-dichloro-3S-hydroxy-2,2-dimethyl-chroman-4-yl)-R-benzo[d]isoxazol-3-one] | 10.3 µM
10 | CC1(C)Oc2ccc(C#N)cc2[C@@H](n2ccnc2-c2ccccc2)[C@@H]1O (racemic) [Compound 47, 3-Hydroxy-2,2-dimethyl-4-(2-phenyl-imidazol-1-yl)-chroman-6-carbonitrile] | > 30 µM
11 | CC1(C)Oc2ccc(C#N)cc2[C@@H](n2ccnc2-c2ccc(Cl)cc2)[C@@H]1O (racemic) [Compound 12, 4-[2-(4-Chloro-phenyl)-imidazol-1-yl]-3-hydroxy-2,2-dimethyl-chroman-6-carbonitrile] | 5.7 µM
12 | COc1ccc(S(=O)(=O)c2ccc3c(c2)[C@@H](n2oc4cc(Cl)ccc4c2=O)[C@H](O)C(C)(C)O3)cc1 [Compound 98, 6-Chloro-2-[3S-hydroxy-6-(4-methoxy-benzenesulfonyl)-2,2-dimethyl-chroman-4-yl]-4R-benzo[d]isoxazol-3-one] | 7.33 µM
13 | N#Cc1ccc2c(c1)[C@@H](Oc1noc3cc(Cl)ccc13)[C@H](O)C1(CCS(=O)(=O)CC1)O2 [Compound 200, (3S,4R)-4-(6-Chloro-benzo[d]isoxazol-3-yloxy)-2,2-(tetrahydro-4-sulfonylpyranyl)-3-hydroxy-chroman-6-carbonitrile] | 29.7 µM
14 | CCN(CC)S(=O)(=O)c1ccc2c(c1)[C@@H](Nc1noc3c(Cl)cccc13)[C@H](O)C(C)(C)O2 [Compound 82, 4R-(7-Chloro-benzo[d]isoxazol-3-ylamino)-3S-hydroxy-2,2-dimethyl-chroman-6-sulfonic acid diethylamide] | 26.6 µM
15 | CC1(C)Oc2ccc(C#N)cc2[C@@H](Oc2ncnc3ccccc23)[C@@H]1O [Compound 40, (3S,4R)-3-Hydroxy-2,2-dimethyl-4-(quinazolin-4-yloxy)-chroman-6-carbonitrile] | 1.94 µM
16 | CCN(CC)S(=O)(=O)c1ccc2c(c1)[C@@H](Oc1noc3ccc(Cl)cc13)[C@H](O)C(C)(C)O2 [Compound 85, 4R-(5-Chloro-benzo[d]isoxazol-3-yloxy)-3S-hydroxy-2,2-dimethyl-chroman-6-sulfonic acid diethylamide] | > 30 µM
17 | CCN(CC)C(=O)c1ccc2c(c1)[C@@H](Nc1noc3ccc(Cl)cc13)[C@H](O)C(C)(C)O2 [Compound 89, 4R-(5-Chloro-benzo[d]isoxazol-3-ylamino)-3S-hydroxy-2,2-dimethyl-chroman-6-carboxylic acid diethylamide] | > 30 µM
18 | CC1(C)Oc2ccc(C(=O)c3ccccc3)cc2[C@@H](n2oc3cc(Cl)ccc3c2=O)[C@@H]1O [Compound 96, 2-(6-Benzoyl-3S-hydroxy-2,2-dimethyl-chroman-4-yl)-6-chloro-4R-benzo[d]isoxazol-3-one] | 6.45 µM
19 | CC1(C)Oc2cc(Cl)c(Cl)cc2[C@@H](Nc2noc3ccc(Cl)cc23)[C@@H]1O [Compound 91, 6,7-Dichloro-4R-(5-chloro-benzo[d]isoxazol-3-ylamino)-2,2-dimethyl-chroman-3S-ol] | 24.8 µM
20 | CC1(C)Oc2ccncc2[C@@H](Nc2nc3cc(Cl)ccc3s2)[C@@H]1O (racemic) [Compound 106, 4-(5-Chloro-benzothiazol-2-ylamino)-2,2-dimethyl-3,4-dihydro-2H-pyrano[3,2-c]pyridin-3-ol] | 19.5 µM

Next, values leading:

Row | EC50 | SMILES
21 | > 30 µM | CC1(C)Oc2ccc(C#N)cc2[C@@H](n2nc(-c3ccc(Cl)cc3)ccc2=O)[C@@H]1O (racemic) [Compound 14, 4-[3-(4-Chloro-phenyl)-6-oxo-6H-pyridazin-1-yl]-3-hydroxy-2,2-dimethyl-chroman-6-carbonitrile]
22 | > 30 µM | Cc1cn([C@@H]2c3cc(C#N)ccc3OC(C)(C)[C@H]2O)c(-c2ccccc2)n1 (racemic) [Compound 9, 3-Hydroxy-2,2-dimethyl-4-(4-methyl-2-phenyl-imidazol-1-yl)-chroman-6-carbonitrile]
23 | > 30 µM | CC1(C)Oc2ccc(C#N)cc2[C@@H](Oc2ccc(-c3ccc(Cl)cc3)nn2)[C@@H]1O (racemic) [Compound 56, 4-[6-(4-Chloro-phenyl)-pyridazin-3-yloxy]-3-hydroxy-2,2-dimethyl-chroman-6-carbonitrile]
24 | > 30 µM | CCN(CC)C(=O)c1ccc2c(c1)[C@@H](Oc1noc3cc(Cl)ccc13)[C@H](O)C(C)(C)O2 [Compound 90, 4R-(6-Chloro-benzo[d]isoxazol-3-yloxy)-3S-hydroxy-2,2-dimethyl-chroman-6-carboxylic acid diethylamide]
25 | > 30 µM | CC1(C)C=C(n2c(N)nc3cc(Cl)ccc32)c2cc(C#N)ccc2O1 [Compound 45, 4-(2-Amino-5-chloro-benzoimidazol-1-yl)-2,2-dimethyl-2H-chromene-6-carbonitrile]
26 | 21.4 µM | CC1(C)Oc2ccc(C#N)cc2[C@@H](N2CC3(CCCCC3)CC2=O)[C@@H]1O [Compound 34, 3S-Hydroxy-2,2-dimethyl-4R-(3-oxo-2-aza-spiro[4.5]dec-2-yl)-chroman-6-carbonitrile]
27 | 20.4 µM | CC1(C)Oc2ccc(C(=O)c3ccccc3)cc2[C@@H](Nc2noc3ccc(Cl)cc23)[C@@H]1O [Compound 92, [4R-(5-Chloro-benzo[d]isoxazol-3-ylamino)-3S-hydroxy-2,2-dimethyl-chroman-6-yl]-phenyl-methanone]
28 | 7.8 µM | CC1(C)Oc2ccc(C#N)cc2[C@@H](Nc2nc(=O)c3ccccc3[nH]2)[C@@H]1O (racemic) [Compound 118, 3-Hydroxy-2,2-dimethyl-4-(4-oxo-1,4-dihydro-quinazolin-2-ylamino)-chroman-6-carbonitrile]
29 | 5.93 µM | CC1(C)Oc2ccc(C#N)cc2[C@@H](n2c(=O)ccn2-c2ccc(Cl)cc2)[C@@H]1O (racemic) [Compound 15, 4-[2-(4-Chloro-phenyl)-5-oxo-2,5-dihydro-pyrazol-1-yl]-3-hydroxy-2,2-dimethyl-chroman-6-carbonitrile]
30 | 6.85 µM | CC1(C)Oc2ccc(C#N)cc2[C@@H](n2nc(N)c3cc(Cl)ccc32)[C@@H]1O [Compound 33, 4R-(3-Amino-5-chloro-indazol-1-yl)-3S-hydroxy-2,2-dimethyl-chroman-6-carbonitrile]
31 | > 30 µM | CC1(C)C=C(n2ccnc2-c2ccccc2)c2cc(C#N)ccc2O1 [Compound 61, 2,2-Dimethyl-4-(2-phenyl-imidazol-1-yl)-2H-chromene-6-carbonitrile]
32 | > 30 µM | CC1(C)Oc2ccc(C#N)cc2[C@@H](n2oc3cc(Cl)ccc3c2=O)[C@@H]1O [Compound 117, 4R-(6-Chloro-3-oxo-3H-benzo[d]isoxazol-2-yl)-3S-hydroxy-2,2-dimethyl-chroman-6-carbonitrile]
33 | 9.91 µM | CC1(C)C=C(Oc2ccc(-c3ccccc3)nn2)c2cc(C#N)ccc2O1 [Compound 53, 2,2-Dimethyl-4-(6-phenyl-pyridazin-3-yloxy)-2H-chromene-6-carbonitrile]
34 | > 30 µM | CC1(C)Oc2ccc(S(=O)(=O)N3CCCCC3)cc2[C@@H](Oc2noc3cc(Cl)ccc23)[C@@H]1O [Compound 83, 4R-(6-Chloro-benzo[d]isoxazol-3-yloxy)-2,2-dimethyl-6-(piperidine-1-sulfonyl)-chroman-3S-ol]
